Experimental data as given in US9988348B1, “Synthesis and antimicrobial use of a trithiocarbonate derivative” (KING SAUD UNIVERSITY, priority 2017, dated 2018).

Experiments:
Assay in all cases: disk diffusion assay, inhibition zone
Assay type in all cases: cell-based
[1] = test system: Cryptococcus neoformans Wild strain
Protocol: (§1) To evaluate antimicrobial activity of the compound 4, synthesized in our laboratory as novel anti-bacterial and anti-fungal agents, the inhibition zone diameter (mm) and the minimal inhibitory concentration were determined according to (Andrews 2001; Hudzicki 2009). The test carried out on several clinical microorganisms included Gram positive bacteria (Staphylococcus aureus ATCC and Streptococcus mutans ATCC 35668), Gram negative bacteria (Escherichia coli ATCC 25922, Salmonella typhimurium ATCC 14028 and Neisseria meningitides ATCC 1302); yeasts (Candid albicans ATCC 60193, Cryptococcus neoformans Wild strain and Candida parapsilosus ATCC 22019) and molds (Aspergillus fumigatus AUMC 8794, Penicillum chrysogenum AUMC 9476 and Fusarium sp.)
(§2) The clinical microorganisms were cultivated at least three times on suitable culture medium and incubating conditions before susceptibility test. The concentration of microbial inoculation suspensions in sterile sodium chloride solution (0.89%) were adjusted to 0.65 at 620 nm by spectrophotometer. […]
(§3) After that, the disks were dried at 25° C. under sterile conditions by safety biological cabinet. A Mueller-Hinton agar (MHA) (Scharlau Microbiogy, Spain) and a potato dextrose agar (PDA) (Scharlau, Spain) were used to perform antibacterial and antifungal test respectively. The media were prepared according to manufacturer's guidelines. To prepare one liter of MHA and one liter of PDA, 21 grams of MHA and 39 grams of PDA were dissolved in one liter of sterile distilled water, followed by sterilization at 121° C. for 15 minutes by an autoclave (HL-321, Taiwan). The sterilized media were poured in sterile plastic Petri dishes at 50° C. The plates were allowed to let the medium solidify at room temperature. 0.1 ml of microbial inoculation suspensions were spread on dried surface of medium and were kept at 25° C. for 5-10 minutes. The compound 4 and standard antimicrobial drugs discs (Table 1) were dispensed on the surface of inoculated media. The tested bacteria and fungi were incubated at 37±1° C. for 19-22 hours and at 25±1 for 48-72 hours respectively. After the incubation, the diameter of inhibition zone (millimeter) resulting from the biological activity of compound were recorded.

[2] = test system: Aspergillus fumigatus AUMC 8794; settings: Aspergillus fumigatus, AUMC8794, A. fumigatus, read-out: Inhibition zone diameter of standard antimicrobial agents
Protocol: as §1, §2, §3

Fusarium sp. = settings: read-out: Inhibition zone diameter of standard antimicrobial agents
Protocol: as §1, §2, §3

[3] = test system: Candid albicans ATCC 60193; settings: Candida albicans, ATCC60193, C. albicans, read-out: Inhibition zone diameter of standard antimicrobial agents
Protocol: as §1, §2, §3

[4] = test system: Penicillum chrysogenum AUMC 9476; settings: read-out: Inhibition zone diameter of standard antimicrobial agents
Protocol: as §1, §2, §3

[5] = test system: Candida parapsilosus ATCC 22019
Protocol: as §1, §2, §3

[6] = test system: Salmonella typhimurium ATCC 14028; settings: Salmonella enterica, Sa. typhimurium, read-out: Inhibition zone diameter of standard antimicrobial agents; for zone of inhibition at 10 µg/disc: 10 μg/disk
Protocol: as §1, §2, §3

[7] = test system: Escherichia coli ATCC 25922; settings: Escherichia coli, ATCC25922, E. coli, read-out: Inhibition zone diameter of standard antimicrobial agents; for zone of inhibition at 10 µg/disc: 10 μg/disk
Protocol: as §1, §2, §3

[8] = test system: Staphylococcus aureus ATCC; settings: Staphylococcus aureus, S. aureus, read-out: Inhibition zone diameter of standard antimicrobial agents; for zone of inhibition at 10 µg/disc: 10 μg/disk
Protocol: as §1, §2, §3

[9] = test system: Streptococcus mutans ATCC 35668; settings: Streptococcus mutans, ATCC35668, S. mutans, read-out: Inhibition zone diameter of standard antimicrobial agents; for zone of inhibition at 10 µg/disc: 10 μg/disk
Protocol: as §1, §2, §3

[10] = test system: Neisseria meningitides ATCC 1302; settings: Neisseria, ATCC1302, N. meningitides, read-out: Inhibition zone diameter of standard antimicrobial agents; for zone of inhibition at 10 µg/disc: 10 μg/disk

**Q.** For `CC[C@H](C)C[C@H](C)CCCCCCCCC(=O)N[C@H]1C[C@@H](O)[C@@H](NCCN)NC(=O)[C@@H]2[C@@H](O)CCN2C(=O)[C@H]([C@H](O)CCN)NC(=O)[C@H]([C@H](O)[C@@H](O)c2ccc(O)cc2)NC(=O)[C@@H]2C[C@@H](O)CN2C(=O)[C@H]([C@@H](C)O)NC1=O` [Caspofungin], which “susceptibility of the strain to the standard drug, in words” value (from here on “susceptibility of the strain”) ([1]; Cr. neoformans strain used in this study) is on record?
**A.** resistance

**Q.** And the zone of inhibition at 10 µg/disc ([1]; Cryptococcus neoformans, C. neoformasn, 10 μg/disk, read-out: Inhibition zone diameter of standard antimicrobial agents)?
**A.** 0 mm

**Q.** What about the zone of inhibition at 10 µg/disc ([2]; 10 μg/disk) of the same molecule?
**A.** 20 mm

**Q.** What about the zone of inhibition at 10 µg/disc (Fusarium sp.; Fusarium sp., 10 μg/disk) of the same molecule?
**A.** 0 mm

**Q.** And the zone of inhibition at 10 µg/disc ([3]; 10 μg/disk)?
**A.** 20 mm

**Q.** And the zone of inhibition at 10 µg/disc ([4]; P. chrysoginum, 10 μg/disk)?
**A.** 0 mm

**Q.** What about the “susceptibility of the strain” value ([5]; C. parasilosus) of the same molecule?
**A.** resistant

**Q.** And the zone of inhibition at 10 µg/disc ([5]; Candida, ATCC22019, C. parasilosus, 10 μg/disk, read-out: Inhibition zone diameter of standard antimicrobial agents)?
**A.** 0 mm

**Q.** What does the source list for `O=C(N[C@H](CO)[C@H](O)c1ccc([N+](=O)[O-])cc1)C(Cl)Cl` [Chloramphenicol]?
**A.** zone of inhibition at 30 µg/disc ([6]; 30 μg/disk): 30 mm; zone of inhibition at 30 µg/disc ([7]; 30 μg/disk): 40 mm; zone of inhibition at 30 µg/disc ([8]; 30 μg/disk): 30 mm; zone of inhibition at 30 µg/disc ([9]; 30 μg/disk): 20 mm; zone of inhibition at 30 µg/disc ([10]; 30 μg/disk): 34 mm

**Q.** How did the zone of inhibition at 30 µg/disc ([1]; Cryptococcus neoformans, read-out: Inhibition zone diameter of standard antimicrobial agents) turn out when `C[C@@H]1C[C@@H]([C@H](O)CC2CC(=O)NC(=O)C2)C(=O)[C@@H](C)C1` [Cycloheximide] was run?
**A.** 32 mm

**Q.** What about the zone of inhibition at 30 µg/disc ([2]; 30 μg/disk) of the same molecule?
**A.** 22 mm

**Q.** What about the zone of inhibition at 30 µg/disc (Fusarium sp.; Fusarium) of the same molecule?
**A.** 30 mm

**Q.** What about the zone of inhibition at 30 µg/disc ([3]; 30 μg/disk) of the same molecule?
**A.** 0 mm

**Q.** And the zone of inhibition at 30 µg/disc [4]?
**A.** 23 mm

**Q.** What about the “susceptibility of the strain” value ([5]; C. parasilosus) of the same molecule?
**A.** resistant

**Q.** What about the zone of inhibition at 30 µg/disc ([5]; Candida, ATCC22019, read-out: Inhibition zone diameter of standard antimicrobial agents) of the same molecule?
**A.** 0 mm

**Q.** What does the source list for `CC(=O)O[C@H]1C[C@@]2(C)[C@@H](C[C@@H](O)[C@H]3[C@@]4(C)CC[C@@H](O)[C@@H](C)[C@@H]4CC[C@@]32C)/C1=C(\CCC=C(C)C)C(=O)O` [Fusidic acid]?
**A.** zone of inhibition at 10 µg/disc [6]: 0 mm; zone of inhibition at 10 µg/disc [7]: 0 mm; zone of inhibition at 10 µg/disc [8]: 23 mm; zone of inhibition at 10 µg/disc [9]: 10 mm; zone of inhibition at 10 µg/disc [10]: 20 mm

**Q.** How did the zone of inhibition at 10 µg/disc [6] turn out when `NC[C@H]1O[C@H](O[C@H]2[C@H](O)[C@@H](O[C@H]3O[C@H](CO)[C@@H](O)[C@H](N)[C@H]3O)[C@H](N)C[C@@H]2N)[C@H](N)C[C@@H]1O` [Tobramycin] was run?
**A.** 14 mm

**Q.** And the zone of inhibition at 10 µg/disc [7]?
**A.** 20 mm

**Q.** What about the zone of inhibition at 10 µg/disc [8] of the same molecule?
**A.** 14 mm

**Q.** What about the zone of inhibition at 10 µg/disc [9] of the same molecule?
**A.** 35 mm

**Q.** And the zone of inhibition at 10 µg/disc [10]?
**A.** 21 mm
